In patent publication US6391901B1, “Thrombin inhibitors” (Eli Lilly and Company, priority 1997, dated 2002):
Counter-ions that a name gives are not always drawn.

melting point	SMILES
150 °C (dec.)	COc1cc(Cc2c(-c3ccc(NS(=O)(=O)c4ccccc4)cc3)sc3cc(O)ccc23)ccc1CN1CCCC1 (as salt: oxalate) [Example 31, 6-Hydroxy-3-[3-methoxy-4-(1-pyrrolidinylmethyl)benzyl]-2-[4-(phenylsulfonylamino)phenyl]benzo[b]thiophene Oxalate]
180 °C (dec.)	COc1cc(C(=O)c2c(-c3ccc(NS(=O)(=O)c4ccccc4)cc3)sc3cc(O)ccc23)ccc1CN1CCCC1 (as salt: oxalate) [Example 32, 6-Hydroxy-2-[4-(phenylsulfonylamino)phenyl)benzo[b]thiophen-3-yl 3-Methoxy-4-(1-pyrrolidinylmethyl)phenyl Ketone Oxalate]
